Measured values: patent publication US11820766B2, “Monoacylglycerol lipase modulators” (Janssen Pharmaceutica NV, priority 2018, dated 2023)
Structures can show the parent of a compound that is named as a salt.

biological target: T1, human MGL from HeLa cells (Homo sapiens, UniProt Q99685); assay: In vitro MGL activity assay: [glycerol-1,3-3H]-oleyl glycerol cleavage by MGL from HeLa cells; assay type: biochemical; conditions: 300 nM [Glycerol-1,3-3H]-oleyl glycerol, one hour
T1 construct: combining endogenously expressed MGL from HeLa cells with test compounds; endogenous in cells; host or cells: HeLa cells / cell homogenates
T1 sequence (Q99685 1-303): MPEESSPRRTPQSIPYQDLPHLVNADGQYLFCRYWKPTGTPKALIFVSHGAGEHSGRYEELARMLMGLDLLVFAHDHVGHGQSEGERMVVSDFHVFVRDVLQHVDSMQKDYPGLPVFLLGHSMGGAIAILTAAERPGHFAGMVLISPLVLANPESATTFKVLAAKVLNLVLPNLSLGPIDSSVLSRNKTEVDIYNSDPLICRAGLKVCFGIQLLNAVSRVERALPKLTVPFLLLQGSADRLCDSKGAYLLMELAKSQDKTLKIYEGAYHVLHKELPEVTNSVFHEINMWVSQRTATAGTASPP
From the text: MGL is the predominant hydrolase in HeLa cells/cell homogenates.

Structure (SMILES)	IC50
C[C@H]1c2nn(C)c(-c3cc(F)c(F)c(F)c3)c2CCN1C(=O)c1cnn(C2CC2)c1C(F)(F)F [Example 346, [1-Cyclopropyl-5-(trifluoromethyl)pyrazol-4-yl]-[(7S)-2,7-dimethyl-3-(3,4,5-trifluorophenyl)-5,7-dihydro-4H-pyrazolo[3,4-c]pyridin-6-yl]methanone]	22.4 nM
C[C@H]1c2nn(C)c(-c3cc(F)c(F)c(F)c3)c2CCN1C(=O)c1cnc2ccncc2c1 [Example 488, [(7S)-2,7-Dimethyl-3-(3,4,5-trifluorophenyl)-5,7-dihydro-4H-pyrazolo[3,4-c]pyridin-6-yl]-(1,6-naphthyridin-3-yl)methanone]	227 nM
C[C@H]1c2nn(C)c(-c3cc(F)c(F)c(F)c3)c2CCN1C(=O)c1ccnc2c1CCCO2 [Example 564, 3,4-Dihydro-2H-pyrano[2,3-b]pyridin-5-yl-[(7S)-2,7-dimethyl-3-(3,4,5-trifluorophenyl)-5,7-dihydro-4H-pyrazolo[3,4-c]pyridin-6-yl]methanone]	58.7 nM
C[C@H]1c2nn(C)c(-c3cc(F)c(F)c(F)c3)c2CCN1C(=O)c1cccc2c1ncn2C [Example 366, [(7S)-2,7-Dimethyl-3-(3,4,5-trifluorophenyl)-5,7-dihydro-4H-pyrazolo[3,4-c]pyridin-6-yl]-(1-methylbenzimidazol-4-yl)methanone]	51.9 nM
C[C@H]1c2nn(C)c(-c3cc(F)c(F)c(F)c3)c2CCN1C(=O)c1n[nH]c2ccncc12 [Example 435, [(7S)-2,7-Dimethyl-3-(3,4,5-trifluorophenyl)-5,7-dihydro-4H-pyrazolo[3,4-c]pyridin-6-yl]-(1H-pyrazolo[4,3-c]pyridin-3-yl)methanone]	40.2 nM
C[C@H]1c2nn(C)c(-c3cc(F)c(F)c(F)c3)c2CCN1C(=O)c1cnn(C)c1C1CC1F (mixture of isomers) [Example 340, ((S)-2,7-Dimethyl-3-(3,4,5-trifluorophenyl)-2,4,5,7-tetrahydro-6H-pyrazolo[3,4-c]pyridin-6-yl)(trans-5-(2-fluorocyclopropyl)-1-methyl-1H-pyrazol-4-yl)methanone]	32.5 nM
C[C@H]1c2nn(C)c(-c3cc(F)c(F)c(F)c3)c2CCN1C(=O)c1nccc2cnn(C)c12 [Example 433, [(7S)-2,7-Dimethyl-3-(3,4,5-trifluorophenyl)-5,7-dihydro-4H-pyrazolo[3,4-c]pyridin-6-yl]-(1-methylpyrazolo[3,4-c]pyridin-7-yl)methanone]	104 nM
COc1nccc(C(=O)N2CCc3c(nn(C)c3-c3cc(F)cc(C(F)F)c3)[C@@H]2C)c1C [Example 609, [(7S)-3-[3-(Difluoromethyl)-5-fluoro-phenyl]-2,7-dimethyl-5,7-dihydro-4H-pyrazolo[3,4-c]pyridin-6-yl]-(2-methoxy-3-methyl-4-pyridyl)methanone]	22.7 nM
C[C@H]1c2nn(C)c(-c3ccc(C(F)(F)F)cc3)c2CCN1C(=O)c1ccc2ncccc2c1 [Example 494, [(7S)-2,7-Dimethyl-3-[4-(trifluoromethyl)phenyl]-5,7-dihydro-4H-pyrazolo[3,4-c]pyridin-6-yl]-(6-quinolyl)methanone]	54.9 nM
C[C@H]1c2nn(C)c(-c3cc(F)c(F)c(F)c3)c2CCN1C(=O)c1c[nH]c2ccc(F)cc12 [Example 355, [(7S)-2,7-Dimethyl-3-(3,4,5-trifluorophenyl)-5,7-dihydro-4H-pyrazolo[3,4-c]pyridin-6-yl]-(5-fluoro-1H-indol-3-yl)methanone]	22.8 nM
C[C@H]1c2nn(C)c(-c3cc(F)c(F)c(F)c3)c2CCN1C(=O)c1nn(C)c2cnccc12 [Example 431, [(7S)-2,7-Dimethyl-3-(3,4,5-trifluorophenyl)-5,7-dihydro-4H-pyrazolo[3,4-c]pyridin-6-yl]-(1-methylpyrazolo[3,4-c]pyridin-3-yl)methanone.TFA salt]	95.3 nM
C[C@H]1c2nn(C)c(-c3cc(F)c(F)c(F)c3)c2CCN1C(=O)c1c[nH]c2cc(F)ccc12 [Example 358, [(7S)-2,7-Dimethyl-3-(3,4,5-trifluorophenyl)-5,7-dihydro-4H-pyrazolo[3,4-c]pyridin-6-yl]-(6-fluoro-1H-indol-3-yl)methanone]	37.6 nM
C[C@H]1c2nn(C)c(-c3cc(F)c(F)c(F)c3)c2CCN1C(=O)c1cnc2[nH]ncc2c1 [Example 423, [(7S)-2,7-Dimethyl-3-(3,4,5-trifluorophenyl)-5,7-dihydro-4H-pyrazolo[3,4-c]pyridin-6-yl]-(1H-pyrazolo[3,4-b]pyridin-5-yl)methanone.TFA salt]	41 nM

same assay, conditions: 300 nM [Glycerol-1,3-3H]-oleyl glycerol, one hour incubation

Structure (SMILES)	IC50
C[C@H]1c2nn(C)c(-c3cc(F)cc(C(F)(F)F)c3)c2CCN1C(=O)c1ccc2nccnc2c1 [Example 184, (S)-(3-(3-Fluoro-5-(trifluoromethyl)phenyl)-2,7-dimethyl-2,4,5,7-tetrahydro-6H-pyrazolo[3,4-c]pyridin-6-yl)(quinoxalin-6-yl)methanone]	136 nM
CC1c2nn(C(F)(F)F)c(-c3cc(F)cc(F)c3)c2CCN1C(=O)c1ccc2ncccc2c1 (centres unmarked) [Example 156, (3-(3,5-Difluorophenyl)-7-methyl-2-(trifluoromethyl)-2,4,5,7-tetrahydro-6H-pyrazolo[3,4-c]pyridin-6-yl)(quinolin-6-yl)methanone]	17 nM
C[C@H]1c2nn(C)c(-c3cc(F)c(F)c(F)c3)c2CCN1C(=O)c1nccc2[nH]ccc12 [Example 216, (S)-(2,7-Dimethyl-3-(3,4,5-trifluorophenyl)-2,4,5,7-tetrahydro-6H-pyrazolo[3,4-c]pyridin-6-yl)(1H-pyrrolo[3,2-c]pyridin-4-yl)methanone]	26.2 nM
Cc1nc2ccc(C(=O)N3CCc4c(nn(C)c4-c4cccc(Cl)c4)[C@@H]3C)cc2o1 [Example 125, (S)-(3-(3-Chlorophenyl)-2,7-dimethyl-2,4,5,7-tetrahydro-6H-pyrazolo[3,4-c]pyridin-6-yl)(2-methylbenzo[d]oxazol-6-yl)methanone]	9.52 nM
CCn1nc2c(c1-c1ccccc1)CCN(C(=O)c1ccc3ncccc3c1)C2 [Example 91, (2-Ethyl-3-phenyl-2,4,5,7-tetrahydro-6H-pyrazolo[3,4-c]pyridin-6-yl)(quinolin-6-yl)methanone]	781 nM
Cn1nc2c(c1-c1ccccc1)CCN(C(=O)c1ccc3ncccc3c1)C2 [Example 90, (2-Methyl-3-phenyl-2,4,5,7-tetrahydro-6H-pyrazolo[3,4-c]pyridin-6-yl)(quinolin-6-yl)methanone]	227 nM
Cn1nc2c(c1-c1ccccc1)CCN(C(=O)c1sc3ccccc3c1Cl)C2 [Example 41, (3-Chlorobenzo[b]thiophen-2-yl)(2-methyl-3-phenyl-2,4,5,7-tetrahydro-6H-pyrazolo[3,4-c]pyridin-6-yl)methanone]	64.6 nM
Cc1ccc(-c2c3c(nn2C)CN(C(=O)c2noc4ccccc24)CC3)s1 [Example 102, Benzo[d]isoxazol-3-yl(2-methyl-3-(5-methylthiophen-2-yl)-2,4,5,7-tetrahydro-6H-pyrazolo[3,4-c]pyridin-6-yl)methanone]	158 nM
COc1cncc(C(=O)N2CCc3c(nn(C)c3-c3cc(F)c(F)c(F)c3)[C@@H]2C)c1 [Example 203, (S)-(2,7-Dimethyl-3-(3,4,5-trifluorophenyl)-2,4,5,7-tetrahydro-6H-pyrazolo[3,4-c]pyridin-6-yl)(5-methoxypyridin-3-yl)methanone]	67.5 nM
C[C@H]1c2nn(C)c(-c3cc(F)c(F)c(F)c3)c2CCN1C(=O)c1cccc(-n2cnnc2)c1 [Example 290, [(7S)-2,7-Dimethyl-3-(3,4,5-trifluorophenyl)-5,7-dihydro-4H-pyrazolo[3,4-c]pyridin-6-yl]-[3-(1,2,4-triazol-4-yl)phenyl]methanone]	71.8 nM
C[C@H]1c2nn(C)c(-c3cc(F)c(F)c(F)c3)c2CCN1C(=O)c1cccc(-c2cnn(C)c2)c1 [Example 273, [(7S)-2,7-Dimethyl-3-(3,4,5-trifluorophenyl)-5,7-dihydro-4H-pyrazolo[3,4-c]pyridin-6-yl]-[3-(1-methylpyrazol-4-yl)phenyl]methanone]	93.1 nM
C[C@H]1c2nn(C)c(-c3cc(F)c(F)c(F)c3)c2CCN1C(=O)c1nccc2occc12 [Example 214, (S)-(2,7-Dimethyl-3-(3,4,5-trifluorophenyl)-2,4,5,7-tetrahydro-6H-pyrazolo[3,4-c]pyridin-6-yl)(furo[3,2-c]pyridin-4-yl)methanone]	23.5 nM
C[C@H]1c2nn(C)c(-c3cc(F)cc(F)c3)c2CCN1C(=O)c1cc(OCCF)ccc1F [Example 142, (S)-(3-(3,5-Difluorophenyl)-2,7-dimethyl-2,4,5,7-tetrahydro-6H-pyrazolo[3,4-c]pyridin-6-yl)(2-fluoro-5-(2-fluoroethoxy)phenyl)methanone]	3.7 nM
COc1ccc(C(=O)N2CCc3c(nn(C)c3-c3cc(F)c(F)c(F)c3)[C@@H]2C)c(F)c1 [Example 265, [(7S)-2,7-Dimethyl-3-(3,4,5-trifluorophenyl)-5,7-dihydro-4H-pyrazolo[3,4-c]pyridin-6-yl]-(2-fluoro-4-methoxy-phenyl)methanone]	35 nM
Cn1nc2c(c1-c1ccccc1)CCN(C(=O)c1nccc3ccccc13)C2 [Example 88, Isoquinolin-1-yl(2-methyl-3-phenyl-2,4,5,7-tetrahydro-6H-pyrazolo[3,4-c]pyridin-6-yl)methanone]	47.3 nM
C[C@H]1c2nn(C)c(-c3cc(F)c(F)c(F)c3)c2CCN1C(=O)c1cc(F)ccc1-n1cncn1 [Example 281, [(7S)-2,7-Dimethyl-3-(3,4,5-trifluorophenyl)-5,7-dihydro-4H-pyrazolo[3,4-c]pyridin-6-yl]-[5-fluoro-2-(1,2,4-triazol-1-yl)phenyl]methanone]	9.01 nM
